Measurements from patent publication US9006454B2, “Dihydroorotate dehydrogenase inhibitors” (Merck Serono S.A., priority 2009, dated 2015).
pEC50, pIC50: −log10 of the molar value.

How the values were obtained:
DHODH = DHODH (Homo sapiens (Human), UniProt Q02127); experiment: DHODH activity assay (coupled enzyme assay, DCIP reduction, absorbance at 610 nm); assay type: biochemical; conditions: for inhibition at 10 µM: read-out: inh @ 10 uM hDHODH (%)
Protocol: The DHODH activity assay is a coupled enzyme assay in which oxidation of DHO and subsequent reduction of ubiquinone are stoichiometrically equivalent to the reduction of DCIP ([…]). The reduction of DCIP is accompanied by a loss of absorbance at 610 nm.
Buffer Preparation: 50 mM tris HCl, 150 mM KCl, and pH 8.0, 0.8% triton.
5 μL of Dimethyl sulfoxide or a compound of formula I in DMSO solution was added to the wells of a 96 well plate. Compounds of formula I were measured at 10 μM.
Protein along with buffer was added, so that the total volume including the DMSO was 87 μL. Compound and protein were incubated for half an hour at room temperature after mixing. 5 μL of 20 mM solution of L-Dihydroorotic acid, 5 μL of 2 mM solution of Decylubiquinone and 3 μL of 2 mM solution of 2,6-Dichloroindophenol sodium salt hydrate were added to the above solution (total assay volume 100 μL). The mixture was stirred for 2 min and absorbance was recorded at every 10 min at 610 nanometers.
Percent Inhibition is Calculated as Follows
Positive control contains DMSO, buffer, enzyme and substrates
No Enzyme reaction contains DMSO, buffer and substrates
IC50 determination: • A 2 mM DMSO stock of the compound of formula I to be examined was prepared. ⅓rd dilutions were made as follows:
5 μL of each stock of compound of formula I (solution indicated in column 4 of table) was used for each 100 μL assay. Therefore, 5 μL of the 2 mM stock provided 100 μL of 100 μM solution of compound of formula I, when made up with buffer, protein and substrate. See also: Ulrich et al. (2001) Eur. J. Biochem. 268, 1861-1868.

Jurkat cells = experiment: Measurement of cell proliferation (Jurkat cell), XTT assay; assay type: cell-based; conditions: for inhibition at 1 µM / pEC50: Homo sapiens, Jurkat; for inhibition at 1 µM: read-out: % inh Jurkat_cells @ 1 uM (%); for pEC50: 72 h, XTT cell viability
Protocol: See also Roehm, N et al [1991] An improved colorimetric assay for cell proliferation and viability utilizing the tetrazolium salt XTT. J. Immunol. Methods 142:257-265.
Culture Jurkat cells in T-25 flasks at a density of 0.2×10^6/ml 2-3 days before the day of experiment set up.
Centrifuge Jurkat T-cell suspension at 1200 rpm for 10 minutes and resuspend cells again in fresh RPMI medium with 10% FBS.
Count the cells and dilute suspension to a density of 2×10^6 cells/ml. Seed 50 μL of this suspension in each well of a 96 well plate (100,000 cells per well). Keep the edges of the plate empty to avoid evaporation.
Serially dilute DMSO stocks of compounds to get different concentrations for an EC50 curve. 50 μL of compound diluted in media (2× concentration required in well) is added to each well. DMSO concentration should be kept constant at 0.25-0.5% for all wells.
Typically, for all compounds with IC50<1 μM, compound concentration can start at 10 μM followed by half log dilutions for a total of 8-10 concentrations. Each concentration has to be tested in triplicate.
Include controls such as cells without compound (with same DMSO concentration as compound wells), and media control
Incubate the 96 well plate in a CO2 incubator at 37° C. for 72 hrs before determining cell viability using XTT assay
XTT assay: to each well, add 50 μL of 1 mg/ml XTT solution with 20 μl of PMS/mL. Read the plates after 2 hours at 465 nm using the spectrophotometer. XTT reading for media without cells is used as background reading.
Calculate % cell viability assuming that the cells without compound are 100% viable.
Plot % cell viability as a function of concentration and determine EC50 by using software such as Graph Pad Prism to fit the curve.

Sequence of DHODH (Q02127 whole entry): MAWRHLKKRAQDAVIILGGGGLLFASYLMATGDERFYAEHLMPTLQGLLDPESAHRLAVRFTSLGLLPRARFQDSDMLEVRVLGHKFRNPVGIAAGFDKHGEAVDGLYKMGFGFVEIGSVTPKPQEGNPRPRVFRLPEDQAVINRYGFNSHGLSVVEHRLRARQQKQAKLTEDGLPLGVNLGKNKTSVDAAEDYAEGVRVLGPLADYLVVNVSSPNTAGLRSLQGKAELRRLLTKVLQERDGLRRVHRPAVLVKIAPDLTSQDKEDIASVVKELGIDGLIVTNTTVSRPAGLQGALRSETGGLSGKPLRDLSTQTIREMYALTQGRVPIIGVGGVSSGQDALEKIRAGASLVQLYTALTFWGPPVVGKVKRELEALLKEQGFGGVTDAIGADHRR

SMILES | pIC50 (DHODH) | inhibition at 10 µM (DHODH; compound at 10 uM) [%] | inhibition at 1 µM (Jurkat cells; compound at 1 uM) [%] | pEC50 (Jurkat cells) | inh @ 10 uM hDHODH (%) (DHODH; compound at 10 uM) | % inh Jurkat_cells @ 1 uM (%) (Jurkat cells; compound at 1 uM)
Cc1cc(C(=O)O)c2[nH]c(-c3ccc(-c4ccc(F)cc4F)cc3)nc2c1 [I33] | 5.85 | 91.3 | 50.5 | – | – | –
O=C(O)c1cc(F)cc2nc(-c3ccc(-c4ccc(F)cc4F)cc3F)[nH]c12 [I34] | – | 82 | 41.8 | – | – | –
O=C(O)c1cc(Cl)cc2nc(-c3ccc(-c4ccccc4)cc3)[nH]c12 [I35] | 6.00 | 92.9 | 56.4 | 6.13 | – | –
O=C(O)c1cc(F)cc2nc(-c3ccc4[nH]ccc4c3)[nH]c12 [I36] | – | 16.1 | 7.7 | – | – | –
O=C(O)c1cc(F)cc2nc(-c3ccc4cc[nH]c4c3)[nH]c12 [I37] | – | 13.7 | 6.9 | – | – | –
N#Cc1cccc2nc(-c3ccc(-c4ccccc4)cc3)[nH]c12 [I38] | – | 16.8 | 8 | – | – | –
O=C(O)c1cccc2nc(-c3cccc4ccccc34)[nH]c12 [I39] | – | 19.9 | 12.3 | – | – | –
Cc1cc(C(=O)O)c2[nH]c(-c3cc4ccccc4[nH]3)nc2c1 [I40] | – | 23.3 | 3.7 | – | – | –
Cc1cc(C(=O)O)c2nc(-c3c(F)c(F)c(-c4ccccc4)c(F)c3F)[nH]c2c1 [I41] | 8.17 | 103 | 103 | 7.74 | – | –
O=C(O)c1cc(Cl)cc2[nH]c(-c3ccc(-c4ccccc4)cc3F)nc12 [I44] | 6.18 | 97.3 | 64.9 | – | – | –
O=C(O)c1cc(Cl)cc2[nH]c(-c3ccc(-c4ccccc4F)cc3)nc12 [I45] | 6.02 | 92.2 | 49.5 | – | – | –
COc1cc(-c2ccccc2)ccc1-c1nc2c(C(=O)O)cc(C)cc2[nH]1 [I46] | 5.93 | 97.7 | 57.1 | – | – | –
Cc1cc(C(=O)O)c2nc(-c3ccc(-c4nc5ccccc5s4)cc3)[nH]c2c1 [I47] | – | 40.3 | 17.3 | – | – | –
Cc1cc(C(=O)O)c2nc(-c3c(F)cc(-c4ccccc4)cc3F)[nH]c2c1 [I48] | 6.75 | 100 | 88.1 | 6.41 | – | –
Cc1cc(C(=O)O)c2nc(-c3cc(-c4ccccc4)cs3)[nH]c2c1 [I49] | – | 32.4 | 11 | – | – | –
O=C(O)c1cccc2[nH]c(-c3ccc(-c4ccccc4)nc3)nc12 [I50] | – | 64.7 | 21 | – | – | –
O=C(O)c1cc(Cl)cc2c1N=C(c1ccc(-c3ccccc3)cc1)C2 [I51] | 5.63 | – | – | – | 86.4 | 39.5
Cc1cc(C(=O)O)c2nc(-c3ccc(-c4cccc(F)c4F)cc3)[nH]c2c1 [I52] | 6.05 | 84.4 | 56.7 | – | – | –
Cc1cc(C(=O)O)c2nc(-c3ccc(-c4ccccc4)cn3)[nH]c2c1 [I53] | 5.15 | 59.8 | 22.7 | – | – | –

SMILES | pIC50 (DHODH) | inhibition at 10 µM (DHODH; compound at 10 uM) [%] | inhibition at 1 µM (Jurkat cells; compound at 1 uM) [%] | pEC50 (Jurkat cells) | inh @ 10 uM hDHODH (%) (DHODH; compound at 10 uM) | % inh Jurkat_cells @ 1 uM (%) (Jurkat cells; compound at 1 uM)
O=C(O)c1cccc2[nH]c(-c3ccc(S(=O)(=O)c4ccccc4)cc3)nc12 [I54] | – | 26.6 | 8 | – | – | –
O=C(O)c1cccc2[nH]c(-c3ccc(Nc4ccccc4)cc3)nc12 [I55] | 4.57 | 33.2 | 6.8 | – | – | –
O=C(O)c1cccc2[nH]c(-c3ccc(Oc4c(F)cccc4F)cc3)nc12 [I56] | 5.80 | 83.2 | 38.8 | – | – | –
O=C(O)c1cccc2[nH]c(-c3ccc(-c4ccncc4)cc3)nc12 [I57] | – | 58 | 12.6 | – | – | –
O=C(O)c1cc(F)cc2[nH]c(-c3ccc(-c4cccnc4)cc3)nc12 [I58] | 6.36 | 99.7 | 69.8 | – | – | –
Cc1cc(C(=O)O)c2nc(-c3ccc(-c4cccnc4)cc3)[nH]c2c1 [I59] | 6.39 | 99.2 | 73.5 | 6.35 | – | –
O=C(O)c1cccc2[nH]c(-c3ccc(-c4cccc(F)c4F)cc3)nc12 [I60] | – | 80.4 | 33.4 | – | – | –
O=C(O)c1cccc2cc(-c3ccc(-c4ccccc4)cc3)[nH]c12 [I61] | 6.23 | 94.8 | 67.2 | 6.69 | – | –
O=C(O)c1cccc2nc(-c3ccc(-n4ccccc4=O)cc3)[nH]c12 [I63] | – | 5.3 | 1.4 | – | – | –
Cc1cc(C(=O)O)c2[nH]c(-c3ccc(-n4ccccc4=O)cc3)nc2c1 [I64] | – | 5.7 | 1.5 | – | – | –
O=C(O)c1cccc2nc(-c3ccc(-c4c(F)cccc4F)cc3)[nH]c12 [I65] | 5.74 | 82 | 43 | – | – | –
Cc1cc(C(=O)O)c2[nH]c(-c3ccc(Oc4ccccc4)cc3)nc2c1 [I67] | 5.47 | 74.2 | 29.3 | – | – | –
O=C(O)c1cc(F)cc2[nH]c(-c3c(F)cc(-c4ccccc4)cc3F)nc12 [I68] | 6.56 | 97.8 | 78.4 | – | – | –
CC(=O)c1cccc2[nH]c(-c3ccc(-c4ccccc4)cc3)nc12 [I69, 1-(2-Biphenyl-4-yl-1H-benzoimidazol-4-yl)-ethanone] | – | 12.5 | 9.2 | – | – | –
O=C(O)c1cccc2[nH]c(-c3ccc(Oc4ccccn4)cc3)nc12 [I70, 2-[4-(Pyridin-2-yloxy)-phenyl]-1H-benzoimidazole-4-carboxylic acid] | – | 58.6 | 14.6 | – | – | –
Cc1cc(C(=O)O)c2nc(-c3ccc(Oc4ccccn4)cc3)[nH]c2c1 [I71, 6-Methyl-2-[4-(pyridin-2-yloxy)-phenyl]-1H-benzoimidazole-4-carboxylic acid] | 5.36 | 75.5 | 28.3 | – | – | –
Cc1cc(C(=O)O)c2nc(-c3ccc(Oc4c(F)c(F)c(F)c(F)c4F)cc3)[nH]c2c1 [I72, 6-Methyl-2-(4-pentafluorophenyloxy-phenyl)-1H-benzoimidazole-4-carboxylic acid] | – | 38 | 9 | – | – | –
O=C(O)c1cccc2nc(-c3ccc(-c4ccccn4)cc3)[nH]c12 [I73, 2-(4-Pyridin-2-yl-phenyl)-3H-benzoimidazole-4-carboxylic acid] | – | 29.6 | 13.6 | – | – | –
